Experimental data reported in BindingDB's records for aid1799744 (Csar, 2012).

target: Mitogen-activated protein kinase 1 (Homo sapiens, UniProt P28482); assay: Assay 1
Sequence (P28482 whole entry): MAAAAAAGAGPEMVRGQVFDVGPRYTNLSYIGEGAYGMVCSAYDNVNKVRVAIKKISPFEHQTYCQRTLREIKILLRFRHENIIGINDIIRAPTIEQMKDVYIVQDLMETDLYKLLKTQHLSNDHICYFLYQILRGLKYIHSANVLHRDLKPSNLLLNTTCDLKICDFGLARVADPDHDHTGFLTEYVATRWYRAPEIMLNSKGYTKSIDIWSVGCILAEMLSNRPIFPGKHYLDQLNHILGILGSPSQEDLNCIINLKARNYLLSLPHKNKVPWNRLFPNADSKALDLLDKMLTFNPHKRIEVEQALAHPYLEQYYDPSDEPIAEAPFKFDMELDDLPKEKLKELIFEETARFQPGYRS

| SMILES | Ki |
| --- | --- |
| CC[C@@H](COC(=O)COCCOC)Nc1ncc(C)c(-c2c[nH]c(C(=O)N[C@H](CO)c3cccc(Cl)c3)c2)n1 [erk000698] | 17 nM |
| Cc1cccc([C@@H](CO)NC(=O)c2cc(-c3nc(N[C@H]4CCOC4)ncc3C)c[nH]2)c1 [erk000660] | 4 nM |
| CCNc1ncc(C)c(-c2c[nH]c(C(=O)NCc3ccccc3C(F)(F)F)c2)n1 [erk000039] | 4570 nM |
| CONc1ncc(C)c(-c2c[nH]c(C(=O)N[C@H](CO)c3ccccc3)c2)n1 [erk000493] | 29 nM |
| Cc1cnc(N[C@H]2CCOC2)nc1-c1cc(C(=O)N[C@H](CO)c2ccccc2)n(C)c1 [erk000704] | 3 nM |
| Cc1cnc(N[C@@H](C)CO)nc1-c1c[nH]c(C(=O)N[C@H](CO)c2ccccc2)c1 [erk000471] | 15 nM |
| CNc1ncc(C)c(-c2c[nH]c(C(=O)NCc3ccc(F)c(Cl)c3)c2)n1 [erk000393] | 282 nM |
| Cc1cnc(NN2CCCCC2)nc1-c1c[nH]c(C(=O)N[C@H](CO)c2cccc(Cl)c2)c1 [erk000621] | 5 nM |
| CC[C@@H](CO)Nc1ncc(C)c(-c2c[nH]c(C(=O)N[C@H](COP(=O)(O)O)c3cccc(Cl)c3)c2)n1 [erk000721] | 4 nM |
| Cc1cnc(-c2ccccc2)nc1-c1c[nH]c(C(=O)N[C@H](CO)c2ccccc2)c1 [erk000501] | 20 nM |
| Cc1cnc(NN2CCN(C)CC2)nc1-c1c[nH]c(C(=O)N[C@H](CO)c2cccc(Cl)c2)c1 [erk000641] | 20 nM |
| Cc1ccccc1CNC(=O)c1cc(-c2ccnc(N)n2)c[nH]1 [erk000663] | 1290 nM |
| Cc1cnc(NO)nc1-c1c[nH]c(C(=O)N[C@H](CO)c2ccccc2)c1 [erk000656] | 2340 nM |
| Clc1ccc(-c2n[nH]c3c2CCCC3)cc1 [erk000071] | 5250 nM |
| Cc1cnc(N[C@@H](CO)CC(F)(F)F)nc1-c1c[nH]c(C(=O)N[C@H](CO)c2cccc(Cl)c2)c1 [erk000675] | 8 nM |
| Cc1cnc(NC2CCCCC2)nc1-c1c[nH]c(C(=O)NCc2ccc(F)c(F)c2)c1 [erk000310] | 71 nM |
| CCOC(=O)N1CCC(Nc2ncc(Cl)c(-c3c[nH]c(C(=O)N[C@H](CO)c4cccc(Cl)c4)c3)n2)CC1 [erk000703] | 7 nM |
| Cc1cnc(NC2(CO)CC2)nc1-c1c[nH]c(C(=O)N[C@H](CO)c2ccccc2)c1 [erk000460] | 1 nM |
| NS(=O)(=O)c1cccc(Nc2nccc(-c3ccc(O)c(C(=O)O)c3)n2)c1 [erk000659] | 229 nM |
| Cc1cnc(Nc2cccc(CO)c2C)nc1-c1c[nH]c(C(=O)N[C@H](CO)c2ccccc2)c1 [erk000541] | 1 nM |
| CC[C@@H](COC(=O)C(C)(C)N)Nc1ncc(C)c(-c2c[nH]c(C(=O)N[C@H](COC(=O)C(C)(C)N)c3cccc(Cl)c3)c2)n1 [erk000720] | 200 nM |
| CCONc1ncc(C)c(-c2c[nH]c(C(=O)N[C@H](CO)c3cccc(C)c3)c2)n1 [erk000599] | 3 nM |
| Cc1cnc(N)nc1-c1c[nH]c(C(=O)NCc2ccc(Cl)cc2)c1 [erk000302] | 617 nM |
| Cc1cnc(Nc2c(Cl)cccc2Cl)nc1-c1c[nH]c(C(=O)N[C@H](CO)c2ccccc2)c1 [erk000564] | 151 nM |
| Cc1cnc(NCC(F)(F)F)nc1-c1cc(C(=O)N[C@H](CO)c2cccc(Cl)c2)n(C)c1 [erk000692] | 6 nM |
| Cc1cnc(N)nc1-c1c[nH]c(C(=O)N[C@@H](CCO)c2ccccc2)c1 [erk000305] | 1550 nM |

| SMILES | Ki |
| --- | --- |
| CN(C)c1sc(C#N)c2c1-c1nc(Nc3cccc(O)c3)ncc1CC2 [erk000499] | 40 nM |
| Cc1cnc(N)nc1-c1c[nH]c(C(=O)N[C@H](CCO)c2ccccc2)c1 [erk000306] | 15800 nM |
| Cc1cnc(Nc2ccccc2)nc1-c1c[nH]c(C(=O)N[C@H](COC(=O)[C@@H](N)C(C)C)c2ccccc2)c1 [erk000637] | 380 nM |
| Cc1cnc(NCCN2CCCC2)nc1-c1c[nH]c(C(=O)N[C@H](CO)c2ccccc2)c1 [erk000568] | 224 nM |
| Cc1cnc(NC(C)(CO)CO)nc1-c1c[nH]c(C(=O)N[C@H](CO)c2ccccc2)c1 [erk000512] | 6 nM |
| CNc1ncc(C)c(-c2c[nH]c(C(=O)NCc3ccccc3)c2)n1 [erk000045] | 776 nM |
| O=C(NCc1ccc2c(c1)OCO2)c1cc(-c2ccnc(Nc3ccccc3)n2)c[nH]1 [erk000049] | 269 nM |
| Cc1cnc(NCc2ccccc2)nc1-c1c[nH]c(C(=O)N[C@H](CO)c2ccccc2)c1 [erk000439] | 14 nM |
| CC[C@@H](C)Nc1ncc(C)c(-c2c[nH]c(C(=O)N[C@H](CO)c3cccc(C)c3)c2)n1 [erk000604] | 76 nM |
| Cc1cnc(N[C@H]2C[C@H]2CO)nc1-c1c[nH]c(C(=O)N[C@H](CO)c2ccccc2)c1 [erk000515] | 21 nM |
| O=C(N[C@H](CO)c1ccccc1)c1cc(-c2nc(Nc3ccccc3)ncc2C2CC2)c[nH]1 [erk000434] | 417 nM |
| O=c1[nH][nH]c2cc(Nc3ncc(Nc4ccccc4)c(Nc4cc(C5CC5)[nH]n4)n3)ccc12 [erk000633] | 15 nM |
| Cc1cnc(N[C@@H]2C[C@@H]2C)nc1-c1c[nH]c(C(=O)N[C@H](CO)c2ccccc2)c1 [erk000510] | 0.5 nM |
| CC[C@@H](COC(=O)OC(C)C)Nc1ncc(C)c(-c2c[nH]c(C(=O)N[C@H](CO)c3cccc(Cl)c3)c2)n1 [erk000684] | 158 nM |
| Cc1cnc(Nc2c(C)cccc2Cl)nc1-c1c[nH]c(C(=O)N[C@H](CO)c2ccccc2)c1 [erk000575] | 110 nM |
| CC[C@@H](COC)Nc1ncc(C)c(-c2c[nH]c(C(=O)N[C@H](CO)c3cccc(Cl)c3)c2)n1 [erk000557] | 4 nM |
| CC(C)Nc1ncc(Cl)c(-c2c[nH]c(C(=O)N(C)[C@H](CO)c3ccccc3)c2)n1 [erk000708] | 6 nM |
| CC[C@@H](COC(=O)[C@@H](NC)C(C)C)Nc1ncc(C)c(-c2c[nH]c(C(=O)N[C@H](COC(=O)[C@@H](NC)C(C)C)c3cccc(Cl)c3)c2)n1 [erk000715] | 1910 nM |
| Cc1cnc(Nc2nc(N3CCCCC3)nc3ccccc23)nc1-c1c[nH]c(C(=O)NCc2ccccc2)c1 [erk000377] | 2090 nM |
| Cc1cnc(N[C@H]2CCC[C@H]2O)nc1-c1c[nH]c(C(=O)N[C@H](CO)c2cccc(Cl)c2)c1 [erk000612] | 7 nM |
| CCONc1ncc(Cl)c(-c2c[nH]c(C(=O)N[C@H](CO)c3cccc(C)c3)c2)n1 [erk000705] | 4 nM |
| Cc1cnc(NCC2CC2)nc1-c1c[nH]c(C(=O)N[C@H](CO)c2ccccc2)c1 [erk000453] | 5 nM |
| CCC[C@@H](CO)Nc1ncc(C)c(-c2c[nH]c(C(=O)N[C@H](CO)c3ccccc3)c2)n1 [erk000551] | 20 nM |
| Cc1cnc(N[C@H]2CCCOC2)nc1-c1c[nH]c(C(=O)N[C@H](CO)c2cccc(Cl)c2)c1 [erk000640] | 28 nM |
| Cc1cnc(NOCC(C)C)nc1-c1c[nH]c(C(=O)N[C@H](CO)c2cccc(Cl)c2)c1 [erk000597] | 14 nM |
| Cc1ccc(Nc2ncc(C)c(-c3c[nH]c(C(=O)N[C@H](CO)c4ccccc4)c3)n2)cc1Br [erk000563] | 3 nM |

| SMILES | Ki |
| --- | --- |
| COC[C@@H]1CCCN1Nc1ncc(C)c(-c2c[nH]c(C(=O)N[C@H](CO)c3cccc(Cl)c3)c2)n1 [erk000622] | 9 nM |
| Cc1cnc(Nc2c(F)cccc2F)nc1-c1c[nH]c(C(=O)N[C@H](CO)c2ccccc2)c1 [erk000561] | 4 nM |
| Cc1cnc(N)nc1-c1c[nH]c(C(=O)N[C@H](CO)c2cccc(Cl)c2)c1 [erk000691] | 15 nM |
| CCC(CC)Nc1ncc(C)c(-c2c[nH]c(C(=O)N[C@H](CO)c3ccccc3)c2)n1 [erk000547] | 6 nM |
| Cc1cnc(NCC(C)C)nc1-c1c[nH]c(C(=O)N[C@H](CO)c2ccccc2)c1 [erk000448] | 3 nM |
| CCC[C@H](C)Nc1ncc(C)c(-c2c[nH]c(C(=O)N[C@H](CO)c3ccccc3)c2)n1 [erk000546] | 18 nM |
| CC[C@@H](COC(=O)C(C)C)Nc1ncc(C)c(-c2c[nH]c(C(=O)N[C@H](CO)c3cccc(Cl)c3)c2)n1 [erk000689] | 15 nM |
| Cc1cc(N)ccc1Nc1ncc(C)c(-c2c[nH]c(C(=O)N[C@H](CO)c3cccc(Cl)c3)c2)n1 [erk000668] | 3 nM |
| CC[C@@H](COC(=O)COCCOCCOC)Nc1ncc(C)c(-c2c[nH]c(C(=O)N[C@H](CO)c3cccc(Cl)c3)c2)n1 [erk000699] | 13 nM |
| CC[C@@H](COC(=O)CCC(=O)N1CCOCC1)Nc1ncc(C)c(-c2c[nH]c(C(=O)N[C@H](COC(=O)CCC(=O)N3CCOCC3)c3cccc(Cl)c3)c2)n1 [erk000718] | 257 nM |
| CCNc1ncc(C)c(-c2c[nH]c(C(=O)N[C@@H](CCO)c3ccccc3)c2)n1 [erk000459] | 501 nM |
| Cc1cnc(Nc2ccccn2)nc1-c1c[nH]c(C(=O)N[C@H](CO)c2cccc(Cl)c2)c1 [erk000611] | 71 nM |
| CC[C@@H](CO)Nc1ncc(F)c(-c2c[nH]c(C(=O)N[C@H](CO)c3cccc(Cl)c3)c2)n1 [erk000697] | 3 nM |
| CCONc1ncc(C)c(-c2cc(C(=O)N[C@H](CO)c3cccc(Cl)c3)n(C)c2)n1 [erk000701] | 13 nM |
| Cc1cnc(NC[C@@H](C)O)nc1-c1c[nH]c(C(=O)N[C@H](CO)c2ccccc2)c1 [erk000463] | 27 nM |
| Cc1cnc(NN(C)C)nc1-c1c[nH]c(C(=O)N[C@H](CO)c2cccc(Cl)c2)c1 [erk000648] | 26 nM |
| CCOC(=O)CNCc1ccc(-c2c[nH]nc2-c2c[nH]c(C(=O)N[C@H](CO)c3ccc(F)c(Cl)c3)c2)cc1Cl [erk000391] | 18 nM |
| Cc1[nH]c(C(=O)N[C@H](CO)c2cccc(Cl)c2)c(C)c1-c1ccnc(Nc2ccc(F)cc2Cl)n1 [erk000700] | 9 nM |
| Cc1csc(Nc2ncc(C)c(-c3c[nH]c(C(=O)N[C@H](CO)c4cccc(Cl)c4)c3)n2)n1 [erk000652] | 4 nM |
| CCNc1ncc(C)c(-c2c[nH]c(C(=O)NCc3cccc(F)c3)c2)n1 [erk000474] | 83 nM |
| CCNc1ncc(C)c(-c2c[nH]c(C(=O)NCc3ccccc3O)c2)n1 [erk000480] | 1510 nM |
| CC[C@@H](CO)Nc1ncc(Cl)c(-c2cc(C(=O)N[C@H](CO)c3ccccc3)n(C)c2)n1 [erk000710] | 4 nM |
| Cc1cnc(NN2CCCC2)nc1-c1c[nH]c(C(=O)N[C@H](CO)c2cccc(Cl)c2)c1 [erk000624] | 7 nM |
| COc1ccccc1Nc1ncc(C)c(-c2c[nH]c(C(=O)N[C@H](CO)c3ccccc3)c2)n1 [erk000446] | 68 nM |
| Cc1cnc(NCCO)nc1-c1c[nH]c(C(=O)N[C@H](CO)c2ccccc2)c1 [erk000461] | 17 nM |
